Columns and labels:
[1] = system: animal model with a collagen induced arthritis (CIA); experiment: Evaluation of arthritis index in animal model with collagen induced arthritis; type: in vivo, mouse; settings: CIA DBA/1J mice, daurinol 20 mg/kg intravenously, total of 9 times, observed until 7th week
[2] = system: mouse model with collagen induced arthritis (CIA); experiment: Measurement of IgG, IgG1 and IgG2a in the serum of CIA mice by sandwich ELISA; type: in vivo
[3] = system: animal model with collagen induced arthritis (CIA); experiment: Expression of inflammatory cytokines in joints of CIA animals (tissue staining); type: in vivo, mouse; settings: injected intravenously, three weeks after
phospho m-TOR = experiment: Western blot of phospho m-TOR in CD4+T cells; type: cell-based; settings: CD4+T cells of normal mouse, daurinol 5 μM, anti-CD3 0.5 μg/mL, 3 days
Protocol: For the observation of changes in intracellular cell signaling factors treated with daurinol, a western blot analysis was performed. For this purpose, CD4+T cells were isolated from a normal mouse, treated with daurinol (5 μM) in a condition already treated with anti-CD3 antibodies (0.5 μg/mL), cultured for 3 days, and the cells were dissolved and proteins were extracted therefrom. Then, the extracted proteins were subjected to SDS-PAGE electrophoresis, and the proteins were electrically transferred onto a nitrocellulose membrane, subjected to a blocking reaction with 5% skim milk for 1 hour, reacted by attaching primary antibodies to STAT3, STAT3p705, STAT3p727, and phospho m-TOR thereto, reacting again by attaching secondary antibodies to the same, and sensitized onto a Kodak X-ray using enhanced chemilunimoecence (ECL), and thereby the protein expression levels of the genes were analyzed.

CD4+ T cells = experiment: IL-17 expression in allogenic reaction in vitro; type: cell-based, mouse; settings: daurinol 0.5, 2, 10 and 20 μM
Protocol: (§1) For the confirmation of the effect of the daurinol compound on the inhibition of T cell proliferation and the expression amount of IL-17, the CD4+ T cells (2×10^5 cells) of a normal recipient (Balb/c, responder), and the T cell-removed splenocytes (2×10^5 cells) derived from a recipient (homogenic) or the splenocytes (2×10^5 cells) derived from a donor (C57BL/6, stimulator, allogenic) exposed to irradiation were added to each well of a 96-well round bottom plate, mixed, and cultured in vitro. In particular, the T cell proliferation and the secretion of IL-17 when an allogenic reaction was untreated with daurinol or treated with daurinol at 0.5 μM, 2 μM, 10 μM, and 20 μM, respectively, were observed.

[4] = system: regulatory T lymphocytes (Treg); experiment: Regulatory T cells (Treg) by flow cytometer in allogenic reaction; type: cell-based, mouse; settings: control not treated 7.27%
Protocol: as §1
In this regard, for the confirmation of the effect of the daurinol compound according to the present invention on the activity of regulatory T lymphocytes (Treg), the present inventors analyzed the T cells isolated in Example <4-2> by a flow cytometer. That is, the T cells isolated in Example <4-2> were collected, washed with the FACs buffer, and reacted at 4° C. for the blocking of nonspecific binding for 5 minutes, and washed with the FACs buffer. […] Upon staining of the cells, the cells were washed with buffer and analyzed using the fluorescent-activated cell sorter (FACs).

[5] = system: animal model with inflammatory bowel disease; experiment: Expression of inflammatory cytokines in the tissues of the large intestine of IBD model; type: in vivo, mouse; settings: daurinol treated
Source text: For the confirmation of the effect of the daurinol compound of the present invention on the treatment of inflammatory bowel disease, the present inventors first constructed an animal model with induced inflammatory bowel disease. For the experimental model, C57BL/6(H-2kb) mice were used. For the construction of an animal model with induced inflammatory bowel disease, the mice were fed with 3.5% dextran sulfate sodium (DSS) and water for a week, thereby preparing an animal model with induced inflammatory bowel disease. The present inventors divided the experimental animals into a normal control group, a group of an animal model with induced inflammatory bowel disease, and a group of an animal model with induced inflammatory bowel disease treated with daurinol or a TNF-α inhibitor, and the group treated with daurinol was administered orally and intrarectally with daurinol (20 mg/kg) from the 4th day after the induction with the disease.

VEGF = VEGF expression in the intestinal tissues of IBD mouse model; type: in vivo; settings: animal (mouse) model with inflammatory bowel disease
Source text: (§2) For the confirmation of the effect of the daurinol compound of the present invention on the treatment of inflammatory bowel disease, the present inventors first constructed an animal model with induced inflammatory bowel disease. For the experimental model, C57BL/6(H-2kb) mice were used. For the construction of an animal model with induced inflammatory bowel disease, the mice were fed with 3.5% dextran sulfate sodium (DSS) and water for a week, thereby preparing an animal model with induced inflammatory bowel disease.
(§3) The present inventors divided the experimental animals into a normal control group, a group of an animal model with induced inflammatory bowel disease, and a group of an animal model with induced inflammatory bowel disease treated with daurinol or a TNF-α inhibitor, and the group treated with daurinol was administered orally and intrarectally with daurinol (20 mg/kg) from the 4th day after the induction with the disease.

[6] = system: mouse with induced inflammatory bowel disease (IBD); experiment: Inflammatory cytokines in the serum of IBD animal model (ELISA); type: in vivo; settings: IBD mice treated with daurinol
Source text: as §2, §3
(§4) Sera were isolated from a mouse with induced inflammatory bowel disease (IBD), and mice treated with daurinol and TNF-α inhibitor, respectively. The levels of IL-17, IFNγ, IL-6, and the like, which are inflammatory cytokines, in the isolated sera were measured by ELISA assay.

[7] = system: mouse with induced inflammatory bowel disease (IBD); experiment: Antibodies expressed in the sera of IBD animal model; type: in vivo; settings: IBD mice treated with daurinol
Source text: as §2, §3, §4
Accordingly, since daurinol can reduce not only the expression of the inflammatory cytokines but also the formation of antibodies in an animal model with inflammatory bowel disease, daurinol can inhibit and control the immune response to autoantibodies and the B cell-related inflammation responses.

[8] = system: splenocytes of the animal model with lupus; experiment: IL-17 level in splenocytes of animal model with lupus (ELISA); type: cell-based; settings: daurinol 1 μM and 5 μM, anti-CD3 0.5 μg/mL or LPS 100 ng/mL, three days
Protocol: Additionally, for the confirmation of the effect of controlling the formation of inflammatory cytokines, the splenocytes of the animal model with lupus were treated with daurinol (1 μM and 5 μM) and anti-CD3 (0.5 μg/mL) or LPS (100 ng/mL) for three days and the levels of IL-17 and TNF-α inflammatory cytokines were evaluated by ELISA assay.

[9] = arthritis animals, daurinol administration

COc1cc2c(-c3ccc4c(c3)OCO4)c3c(cc2cc1O)COC3=O [daurinol]
arthritis index [1]: almost no increase in arthritis index | expression of IgG in the serum ([2]; CIA mouse, three weeks after daurinol injection, 20 mg/kg i.v.): effectively reduced | IgG1 in the serum [2, 9]: significant decrease | IgG2a in the serum [2, 9]: significant decrease | expression level of IL-1beta in joints [3]: significantly reduced | expression level of IL-6 in joints [3]: significantly reduced | expression level of IL-17 in joints [3]: significantly reduced | expression level of TNF-α in joints [3]: significantly reduced | expression of phospho m-TOR (phospho m-TOR): significant decrease | expression of IL-17 (CD4+ T cells): inhibited the expression of IL-17 | Treg cells ([4]; daurinol 1 μM): 9.18% | Treg cells ([4]; daurinol 5 μM): 16.6% | expression of IL-1b in the tissues of the large intestine [5]: significantly inhibit | expression of IL-6 in the tissues of the large intestine [5]: significantly inhibit | expression of IL-8 in the tissues of the large intestine [5]: significantly inhibit | expression of IL-17 in the tissues of the large intestine [5]: significantly inhibit | expression of TNF-α in the tissues of the large intestine [5]: significantly inhibit | VEGF expression in the intestinal tissues (VEGF): significantly inhibited the VEGF expression | level of IFNγ in serum (ELISA) [6]: significantly inhibits | level of IL-6 in serum (ELISA) [6]: significantly inhibits | level of IL-17 in serum (ELISA) [6]: significantly inhibits | level of IgG1 antibodies in sera [7]: reduced the levels | level of IgG2 antibodies in sera [7]: reduced the levels | level of IgG3 antibodies in sera [7]: reduced the levels | level of IgG antibodies in sera [7]: reduced the levels | expression of IL-17 (ELISA) [8]: inhibited the expression of IL-17 and TNF-α in a dose-dependent manner

Source: patent US9526717B2, “Composition for treating immune diseases containing daurinol compound as active ingredient” (THE CATHOLIC UNIVERSITY OF KOREA INDUSTRY-ACADEMIC …, priority 2013, dated 2016)
